Assay results: the supplement of paper PMC10307832

Columns and labels:
Assay in all cases: relative viability (nuclei count vs DMSO), 5 days (fraction); higher = more cells survive
[1] = compound: OCc1c[nH]c2ccccc12 [Indole-3-carbinol] + N=C(N)NC(=N)NCCc1ccccc1 [Phenformin] (partner 250 µM)
Outline: (§1)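 A single step with final 0.05% Triton X-100, 1% formaldehyde and 1 ug/ml Hoechst fixed the cells and stained nuclei 5 days after treatment. Lung cancer cell lines in 1536-well plates had been treated by pin tool the day after seeding with one drug alone or a fixed anchor-drug dose plus five library-drug doses (not always all listed) in √10 steps, and nuclei were counted on 4× images. Relative viability is the ratio of nuclei in treated wells to nuclei in vehicle wells, taken as the median of duplicate plates.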

[2] = compound: OCc1c[nH]c2ccccc12 [Indole-3-carbinol] + CS(=O)(=O)CCNCc1ccc(-c2ccc3ncnc(Nc4ccc(OCc5cccc(F)c5)c(Cl)c4)c3c2)o1 [Lapatinib] (partner 2 µM)
Outline: as §1

[3] = compound: OCc1c[nH]c2ccccc12 [Indole-3-carbinol] + CS(=O)(=O)N1CCN(Cc2cc3nc(-c4cccc5[nH]ncc45)nc(N4CCOCC4)c3s2)CC1 [Pictilisib] (partner 1 µM)
Outline: as §1

[4] = compound: OCc1c[nH]c2ccccc12 [Indole-3-carbinol] + Cc1nc(Nc2ncc(C(=O)Nc3c(C)cccc3Cl)s2)cc(N2CCN(CCO)CC2)n1 [Dasatinib] (partner 0.075 µM)
Outline: as §1

[5] = compound: OCc1c[nH]c2ccccc12 [Indole-3-carbinol] + Cc1nc(NC(=O)N2CCC[C@H]2C(N)=O)sc1-c1ccnc(C(C)(C)C(F)(F)F)c1 [Alpelisib] (partner 2 µM)
Outline: as §1

| Cell Line | relative viability ([1]; first compound 0.253 µM) | relative viability ([1]; first compound 0.8 µM) | relative viability ([1]; first compound 2.53 µM) | relative viability ([1]; first compound 8 µM) | relative viability ([2]; first compound 0.253 µM) | relative viability ([2]; first compound 0.8 µM) | relative viability ([2]; first compound 2.53 µM) | relative viability ([2]; first compound 8 µM) | relative viability ([3]; first compound 0.253 µM) | relative viability ([3]; first compound 0.8 µM) | relative viability ([3]; first compound 2.53 µM) | relative viability ([3]; first compound 8 µM) | relative viability ([4]; first compound 0.253 µM) | relative viability ([4]; first compound 0.8 µM) | relative viability ([4]; first compound 2.53 µM) | relative viability ([4]; first compound 8 µM) | relative viability ([5]; first compound 0.253 µM) | relative viability ([5]; first compound 0.8 µM) | relative viability ([5]; first compound 2.53 µM) | relative viability ([5]; first compound 8 µM) |
| --- | --- | --- | --- | --- | --- | --- | --- | --- | --- | --- | --- | --- | --- | --- | --- | --- | --- | --- | --- | --- |
| 201T | 0.42 | 0.478 | 0.505 | 0.446 | 1.1 | 0.969 | 1.01 | 0.999 | 0.653 | 0.682 | 0.621 | 0.699 | 0.556 | 0.635 | 0.566 | 0.554 | 0.954 | 1.04 | 1.06 | 1.06 |
| A549 | 0.18 | 0.226 | 0.254 | 0.156 | 0.952 | 1.11 | 0.995 | 0.938 | 0.493 | 0.686 | 0.555 | 0.456 |  |  |  |  | 0.876 | 0.842 | 0.832 | 0.66 |
| A-427 | 0.35 | 0.351 | 0.339 | 0.298 | 1.03 | 1 | 0.989 | 0.976 | 0.74 | 0.66 | 0.679 | 0.588 | 0.676 | 0.768 | 0.742 | 0.564 | 1.01 | 1.14 | 1.05 | 0.953 |
| ABC-1 | 0.254 | 0.238 | 0.265 | 0.259 | 1.27 | 1.2 | 1.37 | 0.845 | 0.755 | 0.786 | 0.782 | 0.66 | 0.47 | 0.596 | 0.456 | 0.591 | 0.923 | 1.2 | 1.01 | 0.923 |
| BEN | 0.269 | 0.262 | 0.265 | 0.253 | 0.782 | 0.72 | 0.718 | 0.696 | 0.497 | 0.456 | 0.69 | 0.542 | 0.334 | 0.351 | 0.318 | 0.294 | 0.948 | 0.808 | 1.02 | 0.929 |
| CAL-12T | 0.584 | 0.553 | 0.58 | 0.559 | 0.728 | 0.592 | 0.665 | 0.527 | 0.338 | 0.616 | 0.398 | 0.377 | 0.385 | 0.53 | 0.536 | 0.366 | 1.04 | 1.61 | 1.47 | 1.17 |
| COR-L23 | 0.413 | 0.456 | 0.41 | 0.403 | 0.921 | 0.918 | 0.998 | 0.887 | 0.876 | 0.848 | 0.828 | 0.674 | 0.505 | 0.571 | 0.586 | 0.542 | 0.818 | 1.06 | 0.673 | 0.601 |
| COR-L 105 | 0.497 | 0.408 | 0.488 | 0.416 | 0.339 | 0.281 | 0.353 | 0.343 | 0.371 | 0.374 | 0.432 | 0.382 | 0.368 | 0.337 | 0.396 | 0.301 | 1.07 | 1.21 | 0.925 | 0.979 |
